From US7862798B2, “Vitamin-targeted imaging agents” (Endocyte, Inc., priority 2002, dated 2011)
Blank lines part the entries; values can stand above or below the compound they belong to.

Experiments:
FR-positive KB tumors = assay: Tissue distribution, KB tumor model (Example 16, Table 5); type: in vivo, nude mice; settings: for Blood / Heart / Kidney (one) / Liver & Gall Bladder / Lungs / Muscle / Spleen / Stomach, Intestines & Contents / Tumor: 99mTc-labelled conjugate, 4 hours post i.v.
Experimental: The protocols used in this example are similar to those described in Example 11. The ability of ^99mTc-EC11 (peptide-A1), ^99mTc-EC13 (peptide-A3), and ^99mTc-EC14 (peptide-A2) to target tumors in vivo was assessed using the FR-positive KB tumor model.
FR-positive KB tumor cells (0.25×10^6 per animal) were inoculated subcutaneously in the intracapsular region. Fourteen days after tumor cell inoculation, the animals (n=4/group) were injected intravenously with ^99mTc-EC11, ^99mTc-EC13, or ^99mTc-EC14 at the doses (about 12 μg/kg) of the conjugates shown in Table 5 below. Stocks of ^99mTc-EC11, ^99mTc-EC13, and ^99mTc-EC14 solutions were prepared on the day of use as described above. About a 20-fold excess of free folate (about 200 μg/kg) was co-administered to control animals (n=4/group). […] Selected tissues were removed, weighed, and counted in an automatic gamma counter to determine ^99mTc distribution. Uptake of the radiopharmaceutical in terms of percentage injected dose of wet weight tissue (% ID/g) was calculated by reference to standards prepared from dilutions of the injected preparation.

FR-positive M109 tumors = assay: Tissue distribution, subcutaneous M109 tumors (Example 11)
Experimental: The ability of ^99mTc-EC20 to target tumors in vivo was assessed using a FR-positive M109 model.
Four to five week-old mice (Balb/c strain) were purchased from Harlan Sprague Dawley, Inc. (Indianapolis, Ind.) and were maintained on a folate-free diet for a total of three weeks prior to the experiment. Syngeneic, FR-positive M109 tumor cells (1×10^6 per animal) were inoculated in the subcutis of the right axilla two weeks prior to the experiment.
Animals received an approximate 40 μmol/kg i.v. dose of test article in 100 μL volume via a lateral tail vein during brief diethyl ether anesthesia. Four hours post-injection, animals were sacrificed by CO2 asphyxiation, and dissected. Selected tissues were removed, weighed, and counted to determine ^99mTc distribution. CPM values were decay-corrected, and results were tabulated as % injected dose per gram of wet weight tissue.

[1] = folic acid dihydrate co-injected (about 200 μg/kg)
[2] = folic acid dihydrate co-injected
[3] = 4 hr post i.v., + Folic acid (100 equivalents)
[4] = 4 hr post intravenous injection

Tumor (FR-positive KB tumors; [1]): 2.0 ± 0.5 Percentage of Injected 99mTc D
Heart (FR-positive KB tumors; no folic acid): 3.0 ± 0.5 Percentage of Injected 99mTc D
Liver & Gall Bladder (FR-positive KB tumors; no folic acid): 4.5 ± 1.0 Percentage of Injected 99mTc D
Lungs (FR-positive KB tumors; no folic acid): 1.6 ± 0.3 Percentage of Injected 99mTc D
Muscle (FR-positive KB tumors; no folic acid): 2.4 ± 0.4 Percentage of Injected 99mTc D
Stomach, Intestines & Contents (FR-positive KB tumors; no folic acid): 1.4 ± 0.1 Percentage of Injected 99mTc D
Tumor/Blood (FR-positive KB tumors; [2]): 17.0 ± 4.5
Tumor/Kidney (FR-positive KB tumors; [2]): 0.10 ± 0.01
Tumor/Liver (FR-positive KB tumors; [2]): 3.0 ± 0.6
Tumor/Muscle (FR-positive KB tumors; [2]): 7.7 ± 1.7
Tumor/Blood (FR-positive KB tumors; no folic acid): 29.3 ± 5.2
Tumor/Kidney (FR-positive KB tumors; no folic acid): 0.13 ± 0.03
Tumor/Liver (FR-positive KB tumors; no folic acid): 1.3 ± 0.3
Tumor/Muscle (FR-positive KB tumors; no folic acid): 2.4 ± 0.6
Compound: Nc1nc2ncc(CNc3ccc(C(=O)N[C@@H](CCC(=O)N[C@H](CCC(=O)NC[C@H](N)C(=O)N[C@@H](CC(=O)O)C(=O)N[C@@H](CS)C(=O)O)C(=O)O)C(=O)O)cc3)nc2c(=O)[nH]1 [EC14, Pte-D-Glu-D-Glu-βDpr-Asp-Cys]
Blood (FR-positive KB tumors; [1]): 0.12 ± 0.02 Percentage of Injected 99mTc D
Heart (FR-positive KB tumors; [1]): 0.24 ± 0.01 Percentage of Injected 99mTc D
Kidney (one) (FR-positive KB tumors; [1]): 20.6 ± 2.4 Percentage of Injected 99mTc D
Liver & Gall Bladder (FR-positive KB tumors; [1]): 0.66 ± 0.07 Percentage of Injected 99mTc D
Lungs (FR-positive KB tumors; [1]): 0.24 ± 0.02 Percentage of Injected 99mTc D
Muscle (FR-positive KB tumors; [1]): 0.26 ± 0.02 Percentage of Injected 99mTc D
Spleen (FR-positive KB tumors; [1]): 0.15 ± 0.01 Percentage of Injected 99mTc D
Stomach, Intestines & Contents (FR-positive KB tumors; [1]): 0.50 ± 0.10 Percentage of Injected 99mTc D
Blood (FR-positive KB tumors; no folic acid): 0.19 ± 0.02 Percentage of Injected 99mTc D
Kidney (one) (FR-positive KB tumors; no folic acid): 44.2 ± 6.4 Percentage of Injected 99mTc D
Spleen (FR-positive KB tumors; no folic acid): 0.41 ± 0.06 Percentage of Injected 99mTc D
Tumor (FR-positive KB tumors; no folic acid, KB tumor): 5.57 ± 0.76 Percentage of Injected 99mTc D

Liver & Gall Bladder (FR-positive KB tumors; [1]): 1.6 ± 0.1 Percentage of Injected 99mTc D
Stomach, Intestines & Contents (FR-positive KB tumors; [1]): 1.1 ± 0.3 Percentage of Injected 99mTc D
Heart (FR-positive KB tumors; no folic acid): 2.5 ± 0.3 Percentage of Injected 99mTc D
Liver & Gall Bladder (FR-positive KB tumors; no folic acid): 5.4 ± 1.4 Percentage of Injected 99mTc D
Lungs (FR-positive KB tumors; no folic acid): 1.2 ± 0.2 Percentage of Injected 99mTc D
Muscle (FR-positive KB tumors; no folic acid): 1.8 ± 0.1 Percentage of Injected 99mTc D
Stomach, Intestines & Contents (FR-positive KB tumors; no folic acid): 1.4 ± 0.1 Percentage of Injected 99mTc D
Tumor/Blood (FR-positive KB tumors; [2]): 5.9 ± 0.9
Tumor/Kidney (FR-positive KB tumors; [2]): 0.027 ± 0.005
Tumor/Liver (FR-positive KB tumors; [2]): 0.94 ± 0.09
Tumor/Muscle (FR-positive KB tumors; [2]): 3.9 ± 0.08
Tumor/Blood (FR-positive KB tumors; no folic acid): 13.7 ± 2.1
Tumor/Kidney (FR-positive KB tumors; no folic acid): 0.043 ± 0.005
Tumor/Liver (FR-positive KB tumors; no folic acid): 0.57 ± 0.14
Tumor/Muscle (FR-positive KB tumors; no folic acid): 1.6 ± 0.3
Compound: Nc1nc2ncc(CNc3ccc(C(=O)N[C@@H](CCC(=O)N[C@@H](CCC(=O)NC[C@H](N)C(=O)N[C@@H](CC(=O)O)C(=O)N[C@@H](CS)C(=O)O)C(=O)O)C(=O)O)cc3)nc2c(=O)[nH]1 [EC11]
Blood (FR-positive KB tumors; [1]): 0.25 ± 0.01 Percentage of Injected 99mTc D
Heart (FR-positive KB tumors; [1]): 0.36 ± 0.03 Percentage of Injected 99mTc D
Kidney (one) (FR-positive KB tumors; [1]): 55.5 ± 2.3 Percentage of Injected 99mTc D
Lungs (FR-positive KB tumors; [1]): 0.35 ± 0.03 Percentage of Injected 99mTc D
Muscle (FR-positive KB tumors; [1]): 0.38 ± 0.06 Percentage of Injected 99mTc D
Spleen (FR-positive KB tumors; [1]): 0.23 ± 0.01 Percentage of Injected 99mTc D
Tumor (FR-positive KB tumors; [1]): 1.47 ± 0.24 Percentage of Injected 99mTc D
Blood (FR-positive KB tumors; no folic acid): 0.21 ± 0.01 Percentage of Injected 99mTc D
Kidney (one) (FR-positive KB tumors; no folic acid): 67.8 ± 6.9 Percentage of Injected 99mTc D
Spleen (FR-positive KB tumors; no folic acid): 0.38 ± 0.03 Percentage of Injected 99mTc D
Tumor (FR-positive KB tumors; no folic acid, KB tumor): 2.95 ± 0.57 Percentage of Injected 99mTc D

Tumor/Blood (FR-positive M109 tumors; [3]): 5.00 ± 4.60
Tumor/Blood (FR-positive M109 tumors; [4]): 102 ± 43.4
Compound: Nc1nc2ncc(CNc3ccc(C(=O)N[C@@H](CCC(=O)NCCNC(=O)CN(CCN(CCN(CC(=O)[O-])CC(=O)[O-])CC(=O)[O-])CC(=O)[O-])C(=O)O)cc3)nc2c(=O)[nH]1.[111In] [^111In-DTPA-Folate, reference compound]
Blood (FR-positive M109 tumors; [3]): 0.09 ± 0.04 % Injected Dose per Gram Tissue
Heart (FR-positive M109 tumors; [3]): 0.06 ± 0.02 % Injected Dose per Gram Tissue
Intestine (FR-positive M109 tumors; [3]): 0.82 ± 0.14 % Injected Dose per Gram Tissue
Kidney (FR-positive M109 tumors; [3]): 3.14 ± 1.96 % Injected Dose per Gram Tissue
Liver (FR-positive M109 tumors; [3]): 0.81 ± 0.03 % Injected Dose per Gram Tissue
Lung (FR-positive M109 tumors; [3]): 0.09 ± 0.2 % Injected Dose per Gram Tissue
Muscle (FR-positive M109 tumors; [3]): 0.05 ± 0.04 % Injected Dose per Gram Tissue
Spleen (FR-positive M109 tumors; [3]): 1.46 ± 0.73 % Injected Dose per Gram Tissue
Stomach (FR-positive M109 tumors; [3]): 0.25 ± 0.20 % Injected Dose per Gram Tissue
Tumor (FR-positive M109 tumors; [3]): 0.46 ± 0.42 % Injected Dose per Gram Tissue
Blood (FR-positive M109 tumors; [4]): 0.21 ± 0.10 % Injected Dose per Gram Tissue
Heart (FR-positive M109 tumors; [4]): 2.57 ± 0.82 % Injected Dose per Gram Tissue
Intestine (FR-positive M109 tumors; [4]): 1.87 ± 0.69 % Injected Dose per Gram Tissue
Kidney (FR-positive M109 tumors; [4]): 191 ± 79.2 % Injected Dose per Gram Tissue
Liver (FR-positive M109 tumors; [4]): 5.21 ± 2.63 % Injected Dose per Gram Tissue
Lung (FR-positive M109 tumors; [4]): 1.72 ± 0.61 % Injected Dose per Gram Tissue
Muscle (FR-positive M109 tumors; [4]): 1.19 ± 0.48 % Injected Dose per Gram Tissue
Spleen (FR-positive M109 tumors; [4]): 3.30 ± 2.33 % Injected Dose per Gram Tissue
Stomach (FR-positive M109 tumors; [4]): 1.62 ± 0.65 % Injected Dose per Gram Tissue

Stomach, Intestines & Contents (FR-positive KB tumors; [1]): 3.7 ± 0.7 Percentage of Injected 99mTc D
Heart (FR-positive KB tumors; no folic acid): 1.6 ± 0.1 Percentage of Injected 99mTc D
Liver & Gall Bladder (FR-positive KB tumors; no folic acid): 3.5 ± 0.7 Percentage of Injected 99mTc D
Lungs (FR-positive KB tumors; no folic acid): 1.1 ± 0.1 Percentage of Injected 99mTc D
Muscle (FR-positive KB tumors; no folic acid): 1.7 ± 0.2 Percentage of Injected 99mTc D
Stomach, Intestines & Contents (FR-positive KB tumors; no folic acid): 2.5 ± 0.2 Percentage of Injected 99mTc D
Tumor/Blood (FR-positive KB tumors; [2]): 10.2 ± 1.5.^
Tumor/Kidney (FR-positive KB tumors; [2]): 0.058 ± 0.010
Tumor/Liver (FR-positive KB tumors; [2]): 2.6 ± 0.3
Tumor/Muscle (FR-positive KB tumors; [2]): 8.2 ± 2.0
Tumor/Blood (FR-positive KB tumors; no folic acid): 22.5 ± 1.4
Tumor/Kidney (FR-positive KB tumors; no folic acid): 0.10 ± 0.01
Tumor/Liver (FR-positive KB tumors; no folic acid): 1.6 ± 0.2
Tumor/Muscle (FR-positive KB tumors; no folic acid): 3.3 ± 0.3
Compound: Nc1nc2ncc(CNc3ccc(C(=O)N[C@@H](CCC(=O)NC[C@H](N)C(=O)N[C@@H](CO)C(=O)N[C@@H](CS)C(=O)O)C(=O)O)cc3)nc2c(=O)[nH]1 [EC13]
Blood (FR-positive KB tumors; [1]): 0.16 ± 0.02 Percentage of Injected 99mTc D
Heart (FR-positive KB tumors; [1]): 0.20 ± 0.03 Percentage of Injected 99mTc D
Kidney (one) (FR-positive KB tumors; [1]): 29.1 ± 2.2 Percentage of Injected 99mTc D
Liver & Gall Bladder (FR-positive KB tumors; [1]): 0.65 ± 0.04 Percentage of Injected 99mTc D
Lungs (FR-positive KB tumors; [1]): 0.23 ± 0.02 Percentage of Injected 99mTc D
Muscle (FR-positive KB tumors; [1]): 0.21 ± 0.03 Percentage of Injected 99mTc D
Spleen (FR-positive KB tumors; [1]): 0.15 ± 0.02 Percentage of Injected 99mTc D
Tumor (FR-positive KB tumors; [1]): 1.67 ± 0.24 Percentage of Injected 99mTc D
Blood (FR-positive KB tumors; no folic acid): 0.25 ± 0.03 Percentage of Injected 99mTc D
Kidney (one) (FR-positive KB tumors; no folic acid): 54.5 ± 2.4 Percentage of Injected 99mTc D
Spleen (FR-positive KB tumors; no folic acid): 0.39 ± 0.06 Percentage of Injected 99mTc D
Tumor (FR-positive KB tumors; no folic acid, KB tumor): 5.46 ± 0.45 Percentage of Injected 99mTc D
